# Measured values reported in patent US10138230B2, “Autotaxin inhibitors” (CANCER RESEARCH TECHNOLOGY LIMITED, priority 2015, dated 2018).
# pIC50: −log10 of the molar value. Where a name gives a salt, the structure may show the parent alone.
# Target: human recombinant ATX (Homo sapiens (Human), UniProt Q13822)
# Assay: Autotaxin (ATX) activity Quanta Red assay
# Format: biochemical
# Details: 15 μM Rac-1-Palmitoyl-glycero-3-phosphocholine, 2 hours room temperature, determined in duplicate
# Summary of the method: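 Choline released from 15 μM LPC substrate by 0.8 μg/mL recombinant human ATX (pH 8.0 Tris, CaCl2, 4% DMSO, 2 h, RT) was detected by coupled Quanta Red fluorescence.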
row,Compound,pIC50
1,"O=C(Nc1nnc(CCC2CCCCC2)s1)C1CC(=O)N(c2ccc(CN3CCCOCC3)cc2)C1 (centres unmarked) [Compound F96, N-[5-(2-cyclohexylethyl)-1,3,4-thiadiazol-2-yl]-1-[4-(1,4-oxazepan-4-ylmethyl)phenyl]-5-oxo-pyrrolidine-3-carboxamide]",8.70
2,"CN(Cc1ccc(N2C[C@@H](C(=O)Nc3nnc(CCc4ccc(Cl)cc4)s3)CC2=O)cc1)C1CCOCC1 [Compound F90, (3S)-N-[5-[2-(4-chlorophenyl)ethyl]-1,3,4-thiadiazol-2-yl]-1-[4-[[methyl(tetrahydropyran-4-yl)amino]methyl]phenyl]-5-oxo-pyrrolidine-3-carboxamide]",9.00
3,"O=C(Nc1nnc(CCc2ccc(Cl)cc2)s1)[C@H]1CC(=O)N(c2ccc(CN3CC4CC4C3)cc2)C1 (stereo partly drawn) [Compound F103, (3S)-1-[4-(3-azabicyclo[3.1.0]hexan-3-ylmethyl)phenyl]-N-[5-[2-(4-chlorophenyl)ethyl]-1,3,4-thiadiazol-2-yl]-5-oxo-pyrrolidine-3-carboxamide]",8.52
4,"O=C(NC1CC(=O)N(c2ccc(CN3CC4CC4C3)cc2)C1)c1nnc(CCc2ccc(Cl)cc2)s1 (centres unmarked) [Compound F140, N-[1-[4-(3-azabicyclo[3.1.0]hexan-3-ylmethyl)phenyl]-5-oxo-pyrrolidin-3-yl]-5-[2-(4-chlorophenyl)ethyl]-1,3,4-thiadiazole-2-carboxamide]",8.30
5,"CCN(C)Cc1ccc(N2CC(C(=O)Nc3nnc(CCc4ccc(Cl)cc4)s3)CC2=O)cc1 (centres unmarked) [Compound F211, 1-{4-[(Ethyl-methyl-amino)-methyl]-phenyl}-5-oxo-pyrrolidine-3-carboxylic acid {5-[2-(4-chloro-phenyl)-ethyl]-[1,3,4]thiadiazol-2-yl}-amide]",8.05
6,"O=C(NC1CC(=O)N(c2ccc(CN3CCCCC3)cc2)C1)c1cc(CCc2ccc(Cl)cc2)on1 (centres unmarked) [Compound F144, 5-[2-(4-chlorophenyl)ethyl]-N-[5-oxo-1-[4-(1-piperidylmethyl)phenyl]pyrrolidin-3-yl]isoxazole-3-carboxamide]",8.70
7,"O=C(Nc1nnc(CCc2ccc(F)cc2)s1)[C@H]1CC(=O)N(c2ccc(CN3CCOCC3)cc2)C1 (stereo in doubt) [Compound F215, 1-(4-Morpholin-4-ylmethyl-phenyl)-5-oxo-pyrrolidine-3-carboxylic acid {5-[2-(4-fluoro-phenyl)-ethyl]-[1,3,4]thiadiazol-2-yl}-amide; hydrochloride]",8.52
8,"O=C(Nc1ccc(CCc2ccc(F)cc2)nn1)C1CC(=O)N(c2ccc(CN3CCOCC3)cc2)C1 (centres unmarked) [Compound F149, 1-(4-morpholin-4-ylmethyl-phenyl)-5-oxo-pyrrolidine-3-carboxylic acid {6-[2-(4-fluoro-phenyl)-ethyl]-pyridazin-3-yl}-amide]",8.15
9,"Cn1nc(NC(=O)C2CC(=O)N(c3ccc(CN4CCOCC4)cc3)C2)cc1CCc1ccc(Cl)cc1 (centres unmarked) [Compound F192, N-[5-[2-(4-chlorophenyl)ethyl]-1-methyl-pyrazol-3-yl]-1-[4-(morpholinomethyl)phenyl]-5-oxo-pyrrolidine-3-carboxamide]",6.11
10,"O=C(Nc1ncc(COC2CCCCC2)s1)C1CC(=O)N(c2ccc(CN3CCOCC3)cc2)C1 (centres unmarked) [Compound F187, N-[5-(cyclohexoxymethyl)thiazol-2-yl]-1-[4-(morpholinomethyl)phenyl]-5-oxo-pyrrolidine-3-carboxamide]",6.79
11,"CN(C)Cc1ccc(N2CC(C(=O)Nc3nnc(CCc4ccc(Cl)cc4)s3)CC2=O)cc1 (centres unmarked) [Compound F177, N-[5-[2-(4-chlorophenyl)ethyl]-1,3,4-thiadiazol-2-yl]-1-[4-[(dimethylamino)methyl]phenyl]-5-oxo-pyrrolidine-3-carboxamide]",7.54
12,"CC1CCN(Cc2ccc(N3C[C@@H](C(=O)Nc4nnc(CCc5ccc(Cl)cc5)s4)CC3=O)cc2)CC1 [Compound F92, (S)-1-[4-(4-methyl-piperidin-1-ylmethyl)-phenyl]-5-oxo-pyrrolidine-3-carboxylic acid {5-[2-(4-chloro-phenyl)-ethyl]-[1,3,4]thiadiazol-2-yl}-amide]",9.00
13,"O=C(Nc1ccc(CCc2ccc(F)cc2)nn1)[C@H]1CC(=O)N(c2ccc(CN3CCOCC3)cc2)C1 [Compound F180, (3S)—N-[6-[2-(4-fluorophenyl)ethyl]pyridazin-3-yl]-1-[4-(morpholinomethyl)phenyl]-5-oxo-pyrrolidine-3-carboxamide hydrochloride]",7.96
14,"O=C(N[C@@H]1CCN(c2ccc(CN3CCOCC3)cc2)C1)c1nnc(CCc2ccc(Cl)cc2)s1 [Compound F131, 5-[2-(4-chloro-phenyl)-ethyl]-[1,3,4]thiadiazole-2-carboxylic acid [(R)-1-(4-morpholin-4-ylmethyl-phenyl)-pyrrolidin-3-yl]-amide hydrochloride]",8.70
15,"CCN(Cc1ccc(N2CC(C(=O)Nc3nnc(CCc4ccc(Cl)cc4)s3)CC2=O)cc1)C(C)C (centres unmarked) [Compound F127, N-[5-[2-(4-chlorophenyl)ethyl]-1,3,4-thiadiazol-2-yl]-1-[4-[[ethyl(isopropyl)amino]methyl]phenyl]-5-oxo-pyrrolidine-3-carobxamide]",8.05
16,"O=C(Nc1cnc(CCc2ccccc2)s1)C1CC(=O)N(c2ccc(CN3CCOCC3)cc2)C1 (centres unmarked) [Compound F201, 1-[4-(morpholinomethyl)phenyl]-5-oxo-N-[2-(2-phenylethyl)thiazol-5-yl]pyrrolidine-3-carboxamide]",5.97
17,"O=C(Nc1nnc(CCc2ccc(Cl)cc2)s1)C1CC(=O)N(c2ccc(CN3CCC(O)CC3)cc2)C1 (centres unmarked) [Compound F102, N-[5-[2-(4-chlorophenyl)ethyl]-1,3,4-thiadiazol-2-yl]-1-[4-[(4-hydroxy-1-piperidyl)methyl]phenyl]-5-oxo-pyrrolidine-3-carboxamide]",8.52
18,"O=C(NC1CC(=O)N(c2ccc(CN3CCCCC3)cc2)C1)c1nnc(CCc2ccc(F)cc2)s1 (centres unmarked) [Compound F168, 5-[2-(4-fluorophenyl)ethyl]-N-[5-oxo-1-[4-(1-piperidylmethyl)phenyl]pyrrolidin-3-yl]-1,3,4-thiadiazole-2-carboxamide]",7.77
19,"O=C(Nc1nnc(CCc2ccc(Cl)cc2)s1)[C@H]1CC(=O)N(c2ccc(CN3CCOCC3)cc2)C1 [Compound F89, (3S)-N-[5-[2-(4-chlorophenyl)ethyl]-1,3,4-thiadiazol-2-yl]-1-[4-(morpholino-methyl)phenyl]-5-oxo-pyrrolidine-3-carboxamide]",9.00
20,"O=C(Nc1nnc(CCc2ccc(Cl)cc2)s1)C1CC(=O)N(c2ccc(CN3CCCOCC3)cc2)C1 (centres unmarked) [Compound F101, N-[5-[2-(4-chlorophenyl)ethyl]-1,3,4-thiadiazol-2-yl]-1-[4-(1,4-oxazepan-4-ylmethyl)phenyl]-5-oxo-pyrrolidine-3-carboxamide]",8.52
21,"CCCN(CCC)Cc1ccc(N2CC(C(=O)Nc3nnc(CCc4ccc(Cl)cc4)s3)CC2=O)cc1 (centres unmarked) [Compound F116, N-[5-[2-(4-chlorophenyl)ethyl]-1,3,4-thiadiazol-2-yl]-1-[4-[(dipropyl-amino)methyl]phenyl]-5-oxo-pyrrolidine-3-carboxamide]",8.52
22,"O=C(Nc1ccc(CCc2ccccc2)nn1)C1CC(=O)N(c2ccc(CN3CCOCC3)cc2)C1 (centres unmarked) [Compound F162, 1-[4-(morpholinomethyl)phenyl]-5-oxo-N-[6-(2-phenylethyl)pyridazin-3-yl]pyrrolidine-3-carboxamide]",7.43
23,"O=C(Nc1ccc(CCc2ccc(F)cc2)nn1)[C@H]1CC(=O)N(c2ccc(CN3CCCCC3)cc2)C1 [Compound F178, (3S)-N-[6-[2-(4-fluorophenyl)ethyl]pyridazin-3-yl]-5-oxo-1-[4-(1-piperidylmethyl)phenyl] pyrrolidine-3-carboxamide]",7.52
24,"O=C(Nc1nnc(CCc2ccc(Cl)cc2)s1)C1CC(=O)N(c2ccc(CN3CCCC3)cc2)C1 (centres unmarked) [Compound F151, N-[5-[2-(4-chlorophenyl)ethyl]-1,3,4-thiadiazol-2-yl]-5-oxo-1-[4-(pyrrolidin-1-ylmethyl)phenyl] pyrrolidine-3-carboxamide]",8.05
25,"COc1ccc(CCc2nnc(NC(=O)C3CC(=O)N(c4ccc(CN5CCOCC5)cc4)C3)o2)cc1 (centres unmarked) [Compound F207, N-[5-[2-(4-methoxyphenyl)ethyl]-1,3,4-oxadiazol-2-yl]-1-[4-(morpholinomethyl)phenyl]-5-oxo-pyrrolidine-3-carboxamide]",5.61
26,"CN(Cc1ccc(N2C[C@@H](C(=O)Nc3nnc(CCc4ccc(Cl)cc4)s3)CC2=O)cc1)C1CCOC1 (stereo partly drawn) [Compound F87, (3S)-N-[5-[2-(4-chlorophenyl)ethyl]-1,3,4-thiadiazol-2-yl]-1-[4-[[methyl(tetrahydrofuran-3-yl)amino]methyl]phenyl]-5-oxo-pyrrolidine-3-carboxamide]",9.00
27,"CC(C)(C)OC(=O)N1CCN(Cc2ccc(N3CC(C(=O)Nc4nnc(CCc5ccc(Cl)cc5)s4)CC3=O)cc2)CC1 (centres unmarked) [Compound F157, tert-butyl 4-[[4-[4-[[5-[2-(4-chlorophenyl)ethyl]-1,3,4-thiadiazol-2-yl]carbamoyl]-2-oxo-pyrrolidin-1-yl]phenyl]methyl] piperazine-1-carboxylate]",7.82
28,"O=C(Nc1nnc(CCC2CCCO2)s1)[C@H]1CC(=O)N(c2ccc(CN3CCOCC3)cc2)C1 (stereo partly drawn) [Compound F186, (3S)-1-[4-(morpholinomethyl)phenyl]-5-oxo-N-[5-(2-tetrahydrofuran-2-ylethyl)-1,3,4-thiadiazol-2-yl]pyrrolidine-3-carboxamide]",6.87
29,"CN(Cc1ccc(N2C[C@@H](C(=O)Nc3ccc(CCc4ccc(F)cc4)nn3)CC2=O)cc1)C1CCOC1 (stereo partly drawn) [Compound F148, (3S)-N-[6-[2-(4-fluorophenyl)ethyl]pyridazin-3-yl]-1-[4-[[methyl(tetrahydrofuran-3-yl)amino]methyl]phenyl]-5-oxo-pyrrolidine-3-carboxamide]",8.22
